Patent publication US4987067A, “Maltooligosaccharide derivatives and reagents for determination of amylase activity” (Yoshitomi Pharmaceutical Industries, Ltd., priority 1987, dated 1991)
One block for each compound: values may come before it.

Assays:
[1] = Dissolution of substrate in the reagents of Example 3; format: physicochemical; details: reagents of Example 3 without their substrates, 50 mM Good Buffer pH 7.0; substrate 2 mM in Example 3
Text: An attempt was made to use the substrates listed below instead of the substrates in Example 3, but the former substrates were not dissolved in the reagents in Example 3 (excluding substrates in Example 3).

[2] = tested on: α-Glucosidase, β-Glucosidase, Glucoamylase; assay: Variation in blank value of reagent with time (absorbance at 400 nm), reagent with α-glucosidase, β-glucosidase and glucoamylase; format: biochemical; details: Table 2, glucoamylase added (10 U/ml), substrate 2 mM; for Absorbance at 400 nm (blank value), on reaction initiation: pH 7.0, α-glucosidase 80 U/ml, β-glucosidase 10 U/ml; for Absorbance at 400 nm (blank value), after 10 min. / Absorbance at 400 nm (blank value), after 20 min. / Absorbance at 400 nm (blank value), after 30 min.: pH 7.0
Description: (§1) With this reagent, variation in absorbance was determined in a similar manner to Example 2. A 3 ml quantity of the reagent was added to […] of sample serum and allowed to stand for 5-6 minutes at 37° C. and thereafter, the variation in absorbance at 400 nm was determined and the change in absorbance per one minute which is an indication of amylase activity was calculated The variation in blank value of the reagent with time and the change in absorbance per minute are shown in Table 2 below.
The reagent of the following composition was prepared:
(§2) Substrate (see Table 2) 2 mM

[3] = tested on: α-amylase; assay: Change in absorbance per minute at 400 nm with sample serum (indication of amylase activity); format: biochemical; details: 3 ml reagent added to sample serum, 5-6 minutes at 37° C.
Description: as §1

[4] = tested on: α-Glucosidase, β-Glucosidase; assay: Variation in blank value of reagent with time (absorbance at 400 nm), reagent with α-glucosidase and β-glucosidase; format: biochemical; details: substrate 2 mM
Description: Reagents having the following composition were prepared.
50 mM Good Buffer (pH 7.0)
Substrate (see Table 1) 2 mM
Immediately after the preparation of the reagents, after 10 minutes, 20 minutes and 30 minutes, the absorbance of each reagent at 400 nm was determined (3 ml of reagent sample; 37° C.).
The reagent having the following composition was prepared:
as §2

[5] = Table 1, 50 mM Good Buffer pH 7.0, α-glucosidase 80 U/ml, β-glucosidase 10 U/ml, 37° C., immediately after preparation
[6] = Table 1, pH 7.0, α-glucosidase 80 U/ml, β-glucosidase 10 U/ml, 37° C.
[7] = Table 2, no glucoamylase, pH 7.0

Solubility of substrate in the reagents in Example 3 [1]: not dissolved
Structure (SMILES): O=[N+]([O-])c1ccc(O[C@@H]2O[C@H](CO)[C@@H](O[C@H]3O[C@H](CO)[C@@H](O[C@H]4O[C@H](CO)[C@@H](O[C@H]5O[C@H](CO)[C@@H](O[C@H]6O[C@@H]7COC(c8ccccc8)O[C@H]7[C@H](O)[C@H]6O)[C@H](O)[C@H]5O)[C@H](O)[C@H]4O)[C@H](O)[C@H]3O)[C@H](O)[C@H]2O)c(Cl)c1 (stereo partly drawn) [Benzylidene 2-chloro-4-nitrophenyl-β-maltopentaoside]

Structure (SMILES): CC(=O)CC1OC[C@H]2O[C@H](O[C@H]3[C@H](O)[C@@H](O)[C@@H](O[C@H]4[C@H](O)[C@@H](O)[C@@H](O[C@H]5[C@H](O)[C@@H](O)[C@@H](O[C@H]6[C@H](O)[C@@H](O)[C@H](Oc7ccc([N+](=O)[O-])cc7Cl)O[C@@H]6CO)O[C@@H]5CO)O[C@@H]4CO)O[C@@H]3CO)[C@H](O)[C@@H](O)[C@@H]2O1 (stereo partly drawn) [Example 2, 3-ketobutylidene 2-chloro-4-nitrophenyl-β-maltopentaoside]
Absorbance at 400 nm (blank value), on reaction initiation [2]: 0.051
Absorbance at 400 nm (blank value), after 10 min. [2]: 0.051
Absorbance at 400 nm (blank value), after 20 min. [2]: 0.051
Absorbance at 400 nm (blank value), after 30 min. [2]: 0.052
Change in absorbance ([3]; glucoamylase added (10 U/ml)): 0.157 per minute
Change in absorbance ([3]; no glucoamylase): 0.123 per minute
Absorbance at 400 nm (blank value), on reaction initiation [4, 5]: 0.049
Absorbance at 400 nm (blank value), after 10 min. [4, 6]: 0.049
Absorbance at 400 nm (blank value), after 20 min. [4, 6]: 0.049
Absorbance at 400 nm (blank value), after 30 min. [4, 6]: 0.050
Absorbance at 400 nm (blank value), on reaction initiation ([4]; Table 2, no glucoamylase, pH 7.0, α-glucosidase 80 U/ml, β-glucosidase 10 U/ml): 0.050
Absorbance at 400 nm (blank value), after 10 min. [4, 7]: 0.051
Absorbance at 400 nm (blank value), after 20 min. [4, 7]: 0.051
Absorbance at 400 nm (blank value), after 30 min. [4, 7]: 0.051

Solubility of substrate in the reagents in Example 3 [1]: not dissolved
Structure (SMILES): CC1(C)OC[C@H]2O[C@H](O[C@H]3[C@H](O)[C@@H](O)[C@@H](O[C@H]4[C@H](O)[C@@H](O)[C@@H](O[C@H]5[C@H](O)[C@@H](O)[C@@H](O[C@H]6[C@H](O)[C@@H](O)[C@H](Oc7ccc([N+](=O)[O-])cc7Cl)O[C@@H]6CO)O[C@@H]5CO)O[C@@H]4CO)O[C@@H]3CO)[C@H](O)[C@@H](O)[C@@H]2O1 [Isopropylidene 2-chloro-4-nitrophenyl-β-maltopentaoside]

Solubility of substrate in the reagents in Example 3 [1]: not dissolved
Structure (SMILES): O=[N+]([O-])c1ccc(O[C@@H]2O[C@H](CO)[C@@H](O[C@H]3O[C@H](CO)[C@@H](O[C@H]4O[C@H](CO)[C@@H](O[C@H]5O[C@H](CO)[C@@H](O[C@H]6O[C@@H]7COCO[C@H]7[C@H](O)[C@H]6O)[C@H](O)[C@H]5O)[C@H](O)[C@H]4O)[C@H](O)[C@H]3O)[C@H](O)[C@H]2O)c(Cl)c1 [Methylidene 2-chloro-4-nitrophenyl-β-maltopentaoside]

Structure (SMILES): O=[N+]([O-])c1ccc(O[C@@H]2O[C@H](CO)[C@@H](O[C@H]3O[C@H](CO)[C@@H](O[C@H]4O[C@H](CO)[C@@H](O[C@H]5O[C@H](CO)[C@@H](O[C@H]6O[C@H](CO)[C@@H](O)[C@H](O)[C@H]6O)[C@H](O)[C@H]5O)[C@H](O)[C@H]4O)[C@H](O)[C@H]3O)[C@H](O)[C@H]2O)c(Cl)c1 [compound 1, 2-chloro-4-nitrophenyl-β-maltopentaoside, reference compound]
Absorbance at 400 nm (blank value), on reaction initiation [2]: 0.132
Absorbance at 400 nm (blank value), after 10 min. [2]: 0.162
Absorbance at 400 nm (blank value), after 20 min. [2]: 0.192
Absorbance at 400 nm (blank value), after 30 min. [2]: 0.223
Change in absorbance ([3]; glucoamylase added (10 U/ml)): 0.136 per minute
Absorbance at 400 nm (blank value), on reaction initiation [4, 5]: 0.251
Absorbance at 400 nm (blank value), after 10 min. [4, 6]: 0.273
Absorbance at 400 nm (blank value), after 20 min. [4, 6]: 0.293
Absorbance at 400 nm (blank value), after 30 min. [4, 6]: 0.323
